Series [1] concerns the target HER-2 (Homo sapiens, UniProt P04626). The experiment in a line: HER-2 autophosphorylation kinase assay (DELFIA/time-resolved fluorometry). The note with it: for SI EGFR/HER-2: selectivity index, IC50 EGFR/IC50 HER-2.
Series [2] addresses EGFR (Homo sapiens, UniProt P00533). The series is described as follows: EGFR autophosphorylation kinase assay (DELFIA/time-resolved fluorometry).
Description: A sequence that encodes (His)6 was located at the 5′ upstream to the HER-2 and EGFR sequences. Sf-9 cells were infected for 3 days for protein expression. Sf-9 cell pellets were solubilized at 0 °C in a buffer at pH 7.4 containing 50 mM HEPES, 10 mM NaCl, 1% Triton, 10 μM ammonium molybdate, 100 μM sodium vanadate, 10 μg/mL aprotinin, 10 μg/mL leupeptin, 10 μg/mL pepstatin, and 16 μg/mL benzamidine, HCl for 20 min followed by 20 min centrifugation. Crude extract supernatant was passed through an equilibrated Ni–NTA superflow packed column and washed with 10 mM and then 100 mM imidazole to remove nonspecifically bound material. Histidine-tagged proteins were eluted with 250 and 500 mM imidazole and dialyzed against 50 mM NaCl, 20 mM HEPES, 10% glycerol and 1 μg/mL each of aprotinin, leupeptin, and pepstatin for 2 h. The entire purification procedure was performed at 4 °C or on ice.
Both EGFR and HER-2 kinase assays were set up to assess the level of autophosphorylation based on DELFIA/Time-Resolved Fluorometry. […] Then, 10 μL of 5× buffer (containing 20 mM HEPES, 2 mM MnCl2, 100 μM Na3VO4, and 1 mM DTT) and 20 μL of 0.1 mM ATP-50 mM MgCl2 was added for 1 h. Positive and negative controls were included in each plate by incubation of enzyme with or without ATP-MgCl2. At the end of incubation, liquid was aspirated and plates were washed three times with wash buffer. A 75 μL (400 ng) sample of europium-labeled anti-phosphotyrosine antibody was added to each well for another 1 h of incubation. […] The IC50 was obtained from curves of percentage inhibition with eight concentrations of compound. As the contaminants in the enzyme preparation are fairly low, the majority of the signal detected by the anti-phosphotyrosine antibody is from EGFR or HER-2. The experiment was performed for three independent times and in triplicate each time.
In series [3] the test system is MDA-MB-453 human breast cancer cell line. The series is described as follows: Anti-proliferation assay (MTT), MDA-MB-453. The note with it: 24 h. The format is cell-based. The procedure:
(§1) MCF-7 human breast cancer cells was cultured in DMEM/10% fetal bovine serum, in 5% CO2 water saturated atmosphere at 37 °C. MDA-MB-453 human breast cancer cells was cultured in L-15 medium in 100% air at 37 °C. Cell suspensions (10000/mL) were prepared and 100 μL/well dispensed into 96-well plates (Costar) giving 1000 cells/well. The plates were returned to the incubator for 24 h to allow the cells to reattach. These compounds were initially prepared at 20 mM in DMSO. Aliquots (200 μL) were diluted into 20 mL culture medium giving 200 μM, and 10 serial dilutions of 3× prepared. Aliquots (100 μL) of each dilution were added to the wells, giving doses ranging from 100 μM to 0.005 μM. After a further incubated at 37 °C for 24 h in a humidified atmosphere with 5% CO2, the cell viability was assessed by the conventional 3-(4,5-dimethylthiazol-2-yl)-2,5-diphenyltetrazolium bromide (MTT) reduction assay and carried out strictly according to the manufacturer instructions (Sigma). The absorbance at 590 nm was recorded using LX300 Epson Diagnostic micro-plate reader. Then GI50 was calculated using SPSS 13.0 software.

In series [4] the test system is MCF-7 human breast cancer cell line. The series is described as follows: Anti-proliferation assay (MTT), MCF-7. Type of series: cell-based. The note with it: MCF7, 24 h. As for the experimental part:
as §1

Sequence of EGFR (P00533 669-1210): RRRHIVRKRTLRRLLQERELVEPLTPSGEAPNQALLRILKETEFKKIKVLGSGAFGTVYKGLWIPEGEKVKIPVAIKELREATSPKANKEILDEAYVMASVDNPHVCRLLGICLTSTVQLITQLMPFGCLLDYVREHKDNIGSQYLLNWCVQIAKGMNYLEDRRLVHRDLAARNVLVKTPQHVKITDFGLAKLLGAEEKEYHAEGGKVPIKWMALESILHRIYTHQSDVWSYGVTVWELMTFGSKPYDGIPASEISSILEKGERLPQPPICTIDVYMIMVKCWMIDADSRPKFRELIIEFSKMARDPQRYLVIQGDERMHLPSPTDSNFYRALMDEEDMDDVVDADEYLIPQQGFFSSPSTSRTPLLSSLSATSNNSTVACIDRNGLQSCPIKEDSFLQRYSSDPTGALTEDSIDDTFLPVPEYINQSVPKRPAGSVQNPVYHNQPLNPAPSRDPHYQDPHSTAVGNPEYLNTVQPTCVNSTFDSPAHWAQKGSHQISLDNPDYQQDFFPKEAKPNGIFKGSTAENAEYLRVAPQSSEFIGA
Sequence of HER-2 (P04626 676-1245): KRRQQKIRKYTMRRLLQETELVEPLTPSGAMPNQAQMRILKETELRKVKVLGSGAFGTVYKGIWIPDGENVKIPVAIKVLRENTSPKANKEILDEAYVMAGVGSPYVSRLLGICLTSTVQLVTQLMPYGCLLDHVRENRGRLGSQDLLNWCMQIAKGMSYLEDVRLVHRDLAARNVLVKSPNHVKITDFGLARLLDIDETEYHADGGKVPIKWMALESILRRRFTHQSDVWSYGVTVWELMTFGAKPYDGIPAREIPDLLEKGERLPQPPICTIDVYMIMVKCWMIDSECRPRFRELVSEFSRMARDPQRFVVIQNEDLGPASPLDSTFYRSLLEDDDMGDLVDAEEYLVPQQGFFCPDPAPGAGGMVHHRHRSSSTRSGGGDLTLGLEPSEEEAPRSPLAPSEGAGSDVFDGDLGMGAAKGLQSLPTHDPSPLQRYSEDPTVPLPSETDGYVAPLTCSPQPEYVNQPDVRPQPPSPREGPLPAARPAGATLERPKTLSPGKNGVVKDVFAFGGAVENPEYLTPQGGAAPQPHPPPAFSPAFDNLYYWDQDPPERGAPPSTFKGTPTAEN

`NC(=S)N1N=C(c2ccc3c(c2)OCCO3)CC1c1ccc(F)cc1` (stereo not shown) [Compound C11, 3-(2,3-dihydrobenzo[b][1,4]dioxin-6-yl)-5-(4-fluorophenyl)-4,5-dihydro-1H-pyrazole-1-carbothioamide] came in with a melting point of 235 to 237 °C. In addition, in series [1], the IC50 was found to be 1.9 ± 0.15 µM and the “SI EGFR/HER-2” value amounted to 25.2. Further, the IC50 in series [2] is 47.8 ± 4.54 µM. Besides, the GI50 in series [3] is 11.9 ± 1.05 µM. Besides, the GI50 in series [4] was determined as 28.5 ± 2.8 µM.
With `NC(=S)N1N=C(c2ccc3c(c2)OCCO3)CC1c1cccc(Br)c1` (stereo not shown) [Compound C8, 5-(3-bromophenyl)-3-(2,3-dihydrobenzo[b][1,4]dioxin-6-yl)-4,5-dihydro-1H-pyrazole-1-carbothioamide], the melting point is 247 to 249 °C. Moreover, in series [1], half-maximal inhibition (IC50) was put at 0.45 ± 0.04 µM and the “SI EGFR/HER-2” value is 19.2. In addition, in series [2], the midpoint of inhibition, the IC50, lay at 8.63 ± 0.78 µM. Besides, in series [3], growth was halved (GI50) at 1.69 ± 0.15 µM. The compound also showed a GI50 in series [4] of 5.64 ± 0.52 µM.
Consider `NC(=S)N1N=C(c2ccc3c(c2)OCCO3)CC1c1ccc(OCc2ccccc2)cc1` (stereo not shown) [Compound C16, 5-(4-(benzyloxy)phenyl)-3-(2,3-dihydrobenzo[b][1,4]dioxin-6-yl)-4,5-dihydro-1H-pyrazole-1-carbothioamide], for which the melting point was 197 to 199 °C. In series [1], the IC50 was determined as 0.13 ± 0.01 µM and the “SI EGFR/HER-2” value was determined as 78.5. Further, inhibition in series [2] was half-maximal at 10.2 ± 0.94 µM (IC50). This compound also displayed a 50% growth inhibitory concentration (GI50) in series [3] of 0.36 ± 0.03 µM. In series [4], this compound registered a GI50 of 5.99 ± 0.55 µM.
On to `CS(=O)(=O)CCNCc1ccc(-c2ccc3ncnc(Nc4ccc(OCc5cccc(F)c5)c(Cl)c4)c3c2)o1` [Lapatinib, reference compound], for which the GI50 in series [3] is 0.03 ± 0.002 µM; in series [4] it was 3.12 ± 0.24 µM.
The compound `NC(=S)N1N=C(c2ccc3c(c2)OCCO3)CC1c1cccc(OCc2ccccc2)c1` (stereo not shown) [Compound C6, 5-(3-(benzyloxy)phenyl)-3-(2,3-dihydrobenzo[b][1,4]dioxin-6-yl)-4,5-dihydro-1H-pyrazole-1-carbothioamide] gave a melting point of 178 to 180 °C. In series [1], the IC50 is 0.06 ± 0.004 µM and the “SI EGFR/HER-2” value was found to be 74.8. In series [2], this compound returned an IC50 of 4.49 ± 0.41 µM. The compound further had a concentration for 50% growth inhibition (GI50) in series [3] of 0.2 ± 0.02 µM. The compound further displayed a GI50 in series [4] of 4.95 ± 0.43 µM.
`NC(=S)N1N=C(c2ccc3c(c2)OCCO3)CC1c1ccccc1F` (stereo not shown) [Compound C4, 3-(2,3-dihydrobenzo[b][1,4]dioxin-6-yl)-5-(2-fluorophenyl)-4,5-dihydro-1H-pyrazole-1-carbothioamide]: the melting point lay in the range of 169 to 171 °C. Further, in series [1], the 50% inhibitory concentration (IC50) was 125 ± 10.2 µM and the “SI EGFR/HER-2” value is listed as 0.47. In series [2], half-maximal inhibition (IC50) was put at 59.3 ± 5.58 µM. Besides, the 50% growth inhibitory concentration (GI50) in series [3] is above 300 µM. Halving of growth in series [4] (GI50) required 185 ± 17.8 µM.
Regarding `NC(=S)N1N=C(c2ccc3c(c2)OCCO3)CC1c1cccc(Cl)c1` (stereo not shown) [Compound C7, 5-(3-chlorophenyl)-3-(2,3-dihydrobenzo[b][1,4]dioxin-6-yl)-4,5-dihydro-1H-pyrazole-1-carbothioamide], the melting point fell in the range of 246 to 248 °C. Further, in series [1], half-maximal inhibition (IC50) required 62.8 ± 5.67 µM and the “SI EGFR/HER-2” value stood at 0.15. In addition, in series [2], inhibition was half-maximal at 9.45 ± 0.88 µM (IC50). This compound registered a GI50 in series [3] above 300 µM. In series [4], the GI50 came out at 16.8 ± 0.98 µM.
In turn, `COc1cccc(C2CC(c3ccc4c(c3)OCCO4)=NN2C(N)=S)c1` (stereo not shown) [Compound C5, 3-(2,3-dihydrobenzo[b][1,4]dioxin-6-yl)-5-(3-methoxyphenyl)-4,5-dihydro-1H-pyrazole-1-carbothioamide] gave a melting point of 168 to 170 °C. For the same compound, in series [1], the IC50 turned out to be 86.5 ± 8.05 µM and the “SI EGFR/HER-2” value is given as 0.50. The compound further registered a half-maximal inhibitory concentration (IC50) in series [2] of 43.6 ± 4.1 µM. Growth in series [3] was halved (GI50) at 135 ± 11.1 µM. The compound further had a GI50 in series [4] of 57.2 ± 5.36 µM.
With `C#Cc1cccc(Nc2ncnc3cc(OCCOC)c(OCCOC)cc23)c1` [Erlotinib, reference compound], the concentration for 50% growth inhibition (GI50) stood at 1.56 ± 0.14 µM in series [3] and 0.08 ± 0.006 µM in series [4].

Usually IC50 stands for the point on the concentration scale where inhibition reaches its midpoint. A low value points to greater potency in that assay. By GI50 is commonly meant the concentration that inhibits growth by half. Lower therefore signals more potent growth inhibition. For orientation: melting point means the temperature of the solid-liquid transition.

The values are drawn from publication PMC4897788, “Design, biological evaluation and 3D QSAR studies of novel dioxin-containing pyrazoline derivatives with thiourea skeleton as selective HER-2 inhibitors” (Scientific Reports, 2016).
